Assay results taken from publication PMC10349806 (Nature Communications, 2023).
“And” between values parts separate entries of the source, which are not always exact repeats. Equal entries are not always repeated.

Biological target: PfCRT^Dd2 (Plasmodium falciparum, UniProt Q9N623, A220S/I356T/K76T/M74I/N326S/N75E/Q271E/R371I)
Assay: Drug uptake assay, X. laevis oocytes expressing PfCRT^Dd2
Assay type: cell-based
Details: for v-1 pH 4.5 / v-1 pH 5.0 / v-1 pH 5.5 / v-1 pH 6.0: Lineweaver-Burk
Experimental: Oocytes were obtained as described previously. Briefly, adult (>2 years old) female X. laevis frogs (NASCO) were anesthetized in a cooled solution of ethyl 3-amino benzoate methanesulfonate (0.1%, w/v), followed by a surgical removal of parts of the ovary. The ovary lobes were carefully dissected and small pieces of oocytes were incubated in Ca^2+-free ND96 buffer (96 mM NaCl, 2 mM KCl, 1 mM MgCl2 buffered with 5 mM HEPES/NaOH, pH 7.5) supplemented with collagenase D (0.1%, w/v; Roche), BSA (0.5%, w/v), and 9 mm Na2HPO4 at 18 °C for 14-16 h while gentle shaking. After incubation, the oocytes were carefully washed several times with ND96 buffer (96 mM NaCl, 2 mM KCl, 1.8 mM CaCl2, 1 mM MgCl2 buffered with 5 mM HEPES/NaOH, pH 7.5) supplemented with 100 mg l^−1 gentamycin). Defolliculated and healthy-looking stage V-VI oocytes were manually selected for RNA microinjection. The RNA was generated as following: The codon-optimized sequences of PfCRT variants were cloned into the pSP64T expression vector. After vector linearization using the restriction endonucleases BamHI or SalI (New England Biolabs), transcription was performed using the in vitro SP6 mMessage mMachine Kit (Ambion)[34]. The obtained RNA was kept at −80 °C and diluted with nuclease-free water to a concentration of 0.6 μg μl^−1. Precision-bore glass capillary tubes (3.5-inch glass capillaries; Drummond Scientific Co.) were pulled on a vertical puller (P-87 Flaming/Brown micropipette puller, Sutter Instrument Co.), graduated, and placed on a microinjector (Nanoject II Auto-Nanoliter Injector, Drummond Scientific Co.). 50 nl of nuclease-free water alone (control oocytes) or 50 nl of 0.6 μg μl^−1 RNA were injected under stereomicroscopic control. Injected oocytes were incubated for 46–72 h at 18 °C with twice-daily buffer changes before usage in experiments.
Drug uptake assays were performed as described previously[21],[22],[24],[34]. […] The direction of radio-labeled drug transport is here from the mostly acidic extracellular solution (pH 4.5 or 6.0, as indicated) into the oocyte cytosol (pH ∼ 7.2), which corresponds to the efflux of drug from the acidic digestive vacuole (pH 5.2) into the parasite cytoplasm (pH 7.2). The topology of PfCRT in the oolemma is such that both the N- and C-terminus face the extracellular milieu[3],[22]. In the parasite, the N- and C-terminus face the lumen of the digestive vacuole. […] For determination of the amount of drug uptake for each oocyte, the reaction medium was removed and the oocytes were washed three times with 2 ml of ice-cold ND96 buffer. Each oocyte was individually transferred to a scintillation vial containing 5% sodium dodecyl sulfate (200 μl) for lysis. […] Oocytes that were injected with water instead of RNA were analyzed in parallel, representing the uptake of a drug by diffusion and/or endogenous permeation pathways. The resulting value represents the “background“ level of drug accumulation in oocytes (in-depth discussion in[22]). The specific PfCRT-mediated uptake was determined by subtracting the corresponding background value measured in water-injected oocytes from that of PfCRT-expressing oocytes. In all cases, at least three separate experiments were performed on oocytes from different frogs (biological replicate), and for each condition in an experiment, measurements were made from 10 oocytes per treatment. For pH 5.5, 6.0, and 6.5, ND96 was buffered with 5 mM MES/Tris base. For pH 4.5, 5 mM Homo-Pipes was used as a buffer and 5 mM HEPES for uptake at pH 7.0.

Sequence of PfCRT^Dd2 (Q9N623 whole entry A220S/I356T/K76T/M74I/N326S/N75E/Q271E/R371I): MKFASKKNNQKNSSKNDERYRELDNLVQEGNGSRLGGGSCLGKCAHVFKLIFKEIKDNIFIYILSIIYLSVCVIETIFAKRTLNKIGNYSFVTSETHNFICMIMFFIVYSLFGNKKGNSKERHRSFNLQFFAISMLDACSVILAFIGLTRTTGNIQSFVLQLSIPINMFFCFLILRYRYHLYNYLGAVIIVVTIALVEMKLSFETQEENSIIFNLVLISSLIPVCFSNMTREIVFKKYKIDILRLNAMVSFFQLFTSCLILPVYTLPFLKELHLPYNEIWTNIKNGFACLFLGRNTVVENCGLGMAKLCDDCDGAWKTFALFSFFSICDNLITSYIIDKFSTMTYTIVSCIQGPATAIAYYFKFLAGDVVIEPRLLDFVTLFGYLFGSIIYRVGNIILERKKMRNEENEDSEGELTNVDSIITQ

CCN(CC)CCCC(C)Nc1ccnc2cc(Cl)ccc12 (stereo not shown) [CQ, chloroquine]
PfCRTDd2 transport activity 10 µM CQ pH 4.5 (10 µM CQ, pH 4.5, individual replicates (Fig 4a)): 0.37 pmol oocyte-1 h-1 and 0.31 pmol oocyte-1 h-1 and 0.76 pmol oocyte-1 h-1 and 0.49 pmol oocyte-1 h-1
PfCRTDd2 transport activity (10 µM CQ, pH 5.0, 60 min): 0.54 pmol oocyte-1 h-1
PfCRTDd2 transport activity 10 µM CQ pH 5.0 (10 µM CQ, pH 5.0, individual replicates (Fig 4a)): 0.58 pmol oocyte-1 h-1 and 0.59 pmol oocyte-1 h-1 and 0.45 pmol oocyte-1 h-1
PfCRTDd2 transport activity (10 µM CQ, pH 5.5, 60 min): 0.69 pmol oocyte-1 h-1
PfCRTDd2 transport activity 10 µM CQ pH 5.5 (10 µM CQ, pH 5.5, individual replicates (Fig 4a)): 0.67 pmol oocyte-1 h-1 and 0.82 pmol oocyte-1 h-1 and 0.59 pmol oocyte-1 h-1 and 0.68 pmol oocyte-1 h-1
PfCRTDd2 transport activity (10 µM CQ, pH 6.0, 60 min): 0.94 pmol oocyte-1 h-1 and 0.95 pmol oocyte-1 h-1 and 0.80 pmol oocyte-1 h-1 and 1.08 pmol oocyte-1 h-1
PfCRTDd2 transport activity 10 µM CQ pH 6.0 (10 µM CQ, pH 6.0, individual replicates (Fig 4a)): 0.95 pmol oocyte-1 h-1 and 0.80 pmol oocyte-1 h-1 and 1.08 pmol oocyte-1 h-1
PfCRTDd2-mediated CQ transport activity (10 µM CQ, time 0 min): 0.00 pmol oocyte-1
PfCRTDd2-mediated CQ transport activity (10 µM CQ, time 30 min): 0.73 pmol oocyte-1
PfCRTDd2-mediated CQ transport activity (10 µM CQ, time 60 min): 1.10 pmol oocyte-1
PfCRTDd2-mediated CQ transport activity (10 µM CQ, time 90 min): 2.55 pmol oocyte-1
v-1 pH 4.5 (10 µM CQ): 2.08 (pmol oocyte-1 h-1)-1
v-1 pH 5.0 (10 µM CQ): 1.85 (pmol oocyte-1 h-1)-1
v-1 pH 5.5 (10 µM CQ): 1.45 (pmol oocyte-1 h-1)-1
v-1 pH 6.0 (10 µM CQ): 1.06 (pmol oocyte-1 h-1)-1
PfCRTDd2 transport activity 50 µM CQ pH 4.5 (50 µM CQ, pH 4.5, individual replicates (Fig 4a)): 0.97 pmol oocyte-1 h-1 and 2.03 pmol oocyte-1 h-1 and 1.14 pmol oocyte-1 h-1 and 1.28 pmol oocyte-1 h-1
PfCRTDd2 transport activity 50 µM CQ pH 5.0 (50 µM CQ, pH 5.0, individual replicates (Fig 4a)): 1.93 pmol oocyte-1 h-1 and 2.00 pmol oocyte-1 h-1 and 3.15 pmol oocyte-1 h-1 and 1.59 pmol oocyte-1 h-1 and 2.59 pmol oocyte-1 h-1 and 2.54 pmol oocyte-1 h-1 and 1.86 pmol oocyte-1 h-1 and 2.77 pmol oocyte-1 h-1 and 2.58 pmol oocyte-1 h-1 and 3.10 pmol oocyte-1 h-1
PfCRTDd2 transport activity 50 µM CQ pH 5.5 (50 µM CQ, pH 5.5, individual replicates (Fig 4a)): 2.14 pmol oocyte-1 h-1 and 3.86 pmol oocyte-1 h-1 and 4.54 pmol oocyte-1 h-1 and 3.39 pmol oocyte-1 h-1 and 3.66 pmol oocyte-1 h-1 and 1.74 pmol oocyte-1 h-1 and 6.45 pmol oocyte-1 h-1 and 4.72 pmol oocyte-1 h-1 and 2.44 pmol oocyte-1 h-1 and 3.17 pmol oocyte-1 h-1 and 4.57 pmol oocyte-1 h-1 and 4.41 pmol oocyte-1 h-1 and 3.78 pmol oocyte-1 h-1
PfCRTDd2 transport activity 50 µM CQ pH 6.0 (50 µM CQ, pH 6.0, individual replicates (Fig 4a)): 4.84 pmol oocyte-1 h-1 and 4.32 pmol oocyte-1 h-1 and 4.63 pmol oocyte-1 h-1
PfCRTDd2-mediated CQ transport activity (50 µM CQ, time 0 min): 0.00 pmol oocyte-1
PfCRTDd2-mediated CQ transport activity (50 µM CQ, time 30 min): 3.63 pmol oocyte-1
PfCRTDd2-mediated CQ transport activity (50 µM CQ, time 60 min): 5.55 pmol oocyte-1
PfCRTDd2-mediated CQ transport activity (50 µM CQ, time 90 min): 7.51 pmol oocyte-1
v-1 pH 4.5 (50 µM CQ): 0.52 (pmol oocyte-1 h-1)-1
v-1 pH 5.0 (50 µM CQ): 0.43 (pmol oocyte-1 h-1)-1
v-1 pH 5.5 (50 µM CQ): 0.27 (pmol oocyte-1 h-1)-1
v-1 pH 6.0 (50 µM CQ): 0.22 (pmol oocyte-1 h-1)-1
PfCRTDd2 transport activity (100 µM CQ, pH 4.5, 60 min): 5.17 pmol oocyte-1 h-1 and 4.60 pmol oocyte-1 h-1 and 5.99 pmol oocyte-1 h-1 and 5.32 pmol oocyte-1 h-1 and 4.77 pmol oocyte-1 h-1
PfCRTDd2 transport activity 100 µM CQ pH 4.5 (100 µM CQ, pH 4.5, individual replicates (Fig 4a)): 4.60 pmol oocyte-1 h-1 and 5.99 pmol oocyte-1 h-1 and 5.32 pmol oocyte-1 h-1 and 4.77 pmol oocyte-1 h-1
PfCRTDd2 transport activity (100 µM CQ, pH 5.0, 60 min): 5.48 pmol oocyte-1 h-1
PfCRTDd2 transport activity 100 µM CQ pH 5.0 (100 µM CQ, pH 5.0, individual replicates (Fig 4a)): 4.33 pmol oocyte-1 h-1 and 6.22 pmol oocyte-1 h-1 and 5.90 pmol oocyte-1 h-1
PfCRTDd2 transport activity (100 µM CQ, pH 5.5, 60 min): 7.61 pmol oocyte-1 h-1
PfCRTDd2 transport activity 100 µM CQ pH 5.5 (100 µM CQ, pH 5.5, individual replicates (Fig 4a)): 6.37 pmol oocyte-1 h-1 and 9.40 pmol oocyte-1 h-1 and 7.07 pmol oocyte-1 h-1
PfCRTDd2 transport activity (100 µM CQ, pH 6.0, 60 min): 9.42 pmol oocyte-1 h-1 and 10.41 pmol oocyte-1 h-1 and 9.48 pmol oocyte-1 h-1 and 8.36 pmol oocyte-1 h-1
PfCRTDd2 transport activity 100 µM CQ pH 6.0 (100 µM CQ, pH 6.0, individual replicates (Fig 4a)): 10.41 pmol oocyte-1 h-1 and 9.48 pmol oocyte-1 h-1 and 8.36 pmol oocyte-1 h-1
PfCRTDd2-mediated CQ transport activity (100 µM CQ, time 0 min): 0.00 pmol oocyte-1
PfCRTDd2-mediated CQ transport activity (100 µM CQ, time 30 min): 5.73 pmol oocyte-1
PfCRTDd2-mediated CQ transport activity (100 µM CQ, time 60 min): 8.29 pmol oocyte-1
PfCRTDd2-mediated CQ transport activity (100 µM CQ, time 90 min): 9.71 pmol oocyte-1
v-1 pH 4.5 (100 µM CQ): 0.19 (pmol oocyte-1 h-1)-1
v-1 pH 5.0 (100 µM CQ): 0.18 (pmol oocyte-1 h-1)-1
v-1 pH 5.5 (100 µM CQ): 0.13 (pmol oocyte-1 h-1)-1
v-1 pH 6.0 (100 µM CQ): 0.11 (pmol oocyte-1 h-1)-1
PfCRTDd2 transport activity (200 µM CQ, pH 4.5, 60 min): 7.21 pmol oocyte-1 h-1 and 7.32 pmol oocyte-1 h-1 and 8.24 pmol oocyte-1 h-1 and 6.30 pmol oocyte-1 h-1 and 7.78 pmol oocyte-1 h-1 and 6.41 pmol oocyte-1 h-1
PfCRTDd2 transport activity 200 µM CQ pH 4.5 (200 µM CQ, pH 4.5, individual replicates (Fig 4a)): 7.32 pmol oocyte-1 h-1 and 8.24 pmol oocyte-1 h-1 and 6.30 pmol oocyte-1 h-1 and 7.78 pmol oocyte-1 h-1 and 6.41 pmol oocyte-1 h-1
PfCRTDd2 transport activity (200 µM CQ, pH 5.0, 60 min): 9.98 pmol oocyte-1 h-1
PfCRTDd2 transport activity 200 µM CQ pH 5.0 (200 µM CQ, pH 5.0, individual replicates (Fig 4a)): 9.29 pmol oocyte-1 h-1 and 10.18 pmol oocyte-1 h-1 and 10.48 pmol oocyte-1 h-1
PfCRTDd2 transport activity (200 µM CQ, pH 5.5, 60 min): 10.75 pmol oocyte-1 h-1
PfCRTDd2 transport activity 200 µM CQ pH 5.5 (200 µM CQ, pH 5.5, individual replicates (Fig 4a)): 11.07 pmol oocyte-1 h-1 and 10.25 pmol oocyte-1 h-1 and 11.13 pmol oocyte-1 h-1 and 10.55 pmol oocyte-1 h-1
PfCRTDd2 transport activity (200 µM CQ, pH 6.0, 60 min): 13.53 pmol oocyte-1 h-1 and 12.77 pmol oocyte-1 h-1 and 14.22 pmol oocyte-1 h-1 and 13.59 pmol oocyte-1 h-1
PfCRTDd2 transport activity 200 µM CQ pH 6.0 (200 µM CQ, pH 6.0, individual replicates (Fig 4a)): 12.77 pmol oocyte-1 h-1 and 14.22 pmol oocyte-1 h-1 and 13.59 pmol oocyte-1 h-1
PfCRTDd2-mediated CQ transport activity (200 µM CQ, time 0 min): 0.00 pmol oocyte-1
PfCRTDd2-mediated CQ transport activity (200 µM CQ, time 30 min): 9.39 pmol oocyte-1
PfCRTDd2-mediated CQ transport activity (200 µM CQ, time 60 min): 15.25 pmol oocyte-1
PfCRTDd2-mediated CQ transport activity (200 µM CQ, time 90 min): 18.81 pmol oocyte-1
v-1 pH 4.5 (200 µM CQ): 0.14 (pmol oocyte-1 h-1)-1
v-1 pH 5.0 (200 µM CQ): 0.10 (pmol oocyte-1 h-1)-1
v-1 pH 5.5 (200 µM CQ): 0.09 (pmol oocyte-1 h-1)-1
v-1 pH 6.0 (200 µM CQ): 0.0739 (pmol oocyte-1 h-1)-1
PfCRTDd2 transport activity (300 µM CQ, pH 4.5, 60 min): 8.79 pmol oocyte-1 h-1 and 8.53 pmol oocyte-1 h-1 and 10.77 pmol oocyte-1 h-1 and 6.50 pmol oocyte-1 h-1 and 9.34 pmol oocyte-1 h-1
PfCRTDd2 transport activity 300 µM CQ pH 4.5 (300 µM CQ, pH 4.5, individual replicates (Fig 4a)): 8.53 pmol oocyte-1 h-1 and 10.77 pmol oocyte-1 h-1 and 6.50 pmol oocyte-1 h-1 and 9.34 pmol oocyte-1 h-1
PfCRTDd2 transport activity (300 µM CQ, pH 5.0, 60 min): 10.68 pmol oocyte-1 h-1
PfCRTDd2 transport activity 300 µM CQ pH 5.0 (300 µM CQ, pH 5.0, individual replicates (Fig 4a)): 10.67 pmol oocyte-1 h-1 and 9.04 pmol oocyte-1 h-1 and 12.33 pmol oocyte-1 h-1
PfCRTDd2 transport activity (300 µM CQ, pH 5.5, 60 min): 12.81 pmol oocyte-1 h-1
PfCRTDd2 transport activity 300 µM CQ pH 5.5 (300 µM CQ, pH 5.5, individual replicates (Fig 4a)): 13.73 pmol oocyte-1 h-1 and 12.01 pmol oocyte-1 h-1 and 12.69 pmol oocyte-1 h-1
PfCRTDd2 transport activity (300 µM CQ, pH 6.0, 60 min): 15.42 pmol oocyte-1 h-1 and 15.31 pmol oocyte-1 h-1 and 16.86 pmol oocyte-1 h-1 and 14.10 pmol oocyte-1 h-1
PfCRTDd2 transport activity 300 µM CQ pH 6.0 (300 µM CQ, pH 6.0, individual replicates (Fig 4a)): 15.31 pmol oocyte-1 h-1 and 16.86 pmol oocyte-1 h-1 and 14.10 pmol oocyte-1 h-1
PfCRTDd2-mediated CQ transport activity (300 µM CQ, time 0 min): 0.00 pmol oocyte-1
PfCRTDd2-mediated CQ transport activity (300 µM CQ, time 30 min): 9.78 pmol oocyte-1
PfCRTDd2-mediated CQ transport activity (300 µM CQ, time 60 min): 14.63 pmol oocyte-1
